From PubChem BioAssay (NCI)
Values joined by “and” are separate entries in the source; they are usually repeats but may differ in a detail not shown here. Equal entries are not always repeated.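 Following 48 hours of exposure in 96-well plates, responses at five concentrations were used to interpolate endpoints linearly. The concentration for 50% growth inhibition is given as GI50. TGI marks complete inhibition of growth.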

Experiments:
Test in all cases: NCI-60 cell line screen, 48 h
COLO 205 colon = test system: COLO 205 colon
SF-268 CNS = test system: SF-268 CNS
DLD-1 colon = test system: DLD-1 colon
MCF7 breast = test system: MCF7 breast
OVCAR-8 ovarian = test system: OVCAR-8 ovarian
M19-MEL melanoma = test system: M19-MEL melanoma
SK-MEL-2 melanoma = test system: SK-MEL-2 melanoma
HCT-15 colon = test system: HCT-15 colon
MALME-3M melanoma = test system: MALME-3M melanoma
SR leukemia = test system: SR leukemia

SMILES | TGI (COLO 205 colon) | TGI (SF-268 CNS) | TGI (DLD-1 colon) [µM] | TGI (MCF7 breast) [µM] | TGI (OVCAR-8 ovarian) [µM] | TGI (M19-MEL melanoma) [µM] | TGI (SK-MEL-2 melanoma) [µM] | TGI (HCT-15 colon) [µM] | TGI (MALME-3M melanoma) | TGI (SR leukemia) [µM] | GI50 (COLO 205 colon) [µM] | GI50 (SR leukemia) [µM] | GI50 (MCF7 breast) [µM] | GI50 (OVCAR-8 ovarian) [µM] | GI50 (SK-MEL-2 melanoma) [µM] | GI50 (MALME-3M melanoma) [µM] | GI50 (SF-268 CNS) [µM] | GI50 (DLD-1 colon) [µM] | GI50 (M19-MEL melanoma) [µM]
C/C(=N\N=C(/[Se])N1CC2CCC(CC2)C1)c1ccccn1 | 0.063 µM | 5.43 µM | 1.96 | 2.8 | 2.34 | 0.559 | 0.716 | 2.06 | 0.567 µM | – | – | – | – | – | – | – | – | – | –
Cc1cc(NS(=O)(=O)c2ccc(NC(=O)c3cccc4c(Nc5ccc(S(=O)(=O)N=C(N)N)cc5)c5ccccc5nc34)cc2)no1 | > 100 µM | > 100 µM | > 100 | – | > 100 | – | – | > 100 | > 100 µM | > 100 | – | – | – | – | – | – | – | – | –
COc1cc(/C=C2\CCC(CN(C)C)C2=O)ccc1OC(=O)c1ccccc1 (stereo unspecified) | 24.8 µM | 27.5 µM | 16.1 | 21 | 22 | 24.7 | 32.7 | 20.4 | 29.5 µM | 6.97 | – | – | – | – | – | – | – | – | –
NC(N)=NNC(=O)CCCCCCCC(=O)NN=C(N)N | 35.4 µM | > 100 µM | > 100 | – | – | > 100 | > 100 | 34.1 | > 100 µM | – | – | – | – | – | – | – | – | – | –
Nc1c(C(=O)Nc2ccccc2)[n+]([O-])c2ccccc2[n+]1[O-] | 29.3 µM | > 100 µM | 37.6 | – | > 100 | 32.2 | 33.5 | 28.2 | – | – | – | – | – | – | – | – | – | – | –
c1ccc2c(c1)[nH]c1cnc3c4cccnc4[nH]c3c12 | 30.3 µM | 36.1 µM | 33.5 | – | 32 | 31.5 | – | 31.9 | 49 µM | 48.7 | – | – | – | – | – | – | – | – | –
COc1cc2c(cc1O)CC13CCC(=O)N1CCc1cc(OC)c(O)c-2c13 (stereo unspecified) | > 68.1 µM | > 68.1 µM | > 68.1 | – | > 68.1 | > 68.1 | – | > 68.1 | > 68.1 µM | > 68.1 | – | – | – | – | – | – | – | – | –
CC(=O)OC1(C)C(=O)OC1(C)C(C)=O (stereo unspecified) | > 100 µM | > 100 µM | > 100 | – | > 100 | > 100 | > 100 | > 100 | > 100 µM | – | – | – | – | – | – | – | – | – | –
CCN(c1ccc(Br)cc1)c1c(Br)c(=O)nc2ccccn12 | > 100 µM | > 100 µM | > 100 | – | > 100 | > 100 | > 100 | > 100 | > 100 µM | > 100 | – | – | – | – | – | – | – | – | –
CCCCOC(=O)NC(=O)c1cn(CCSCCOC(=O)NCCCCCCNC(=O)OCCSCCn2cc(C(=O)NC(=O)OCCCC)c(=O)[nH]c2=O)c(=O)[nH]c1=O | > 100 µM | > 100 µM | > 100 | – | – | > 100 | > 100 | > 100 | 76.6 µM | > 100 | – | – | – | – | – | – | – | – | –
CC(C)(C)C(=O)ON1N=NC2C3CC(OCc4ccccc4)(OCc4ccccc4)C(O3)C21 (stereo unspecified) | 38.4 µM | 88.2 µM | 44.6 | – | – | 30 | 34.3 | 56.3 | 31.2 µM | – | – | – | – | – | – | – | – | – | –
C1OC1CO[C@@H]1CO[C@H]2[C@@H]1OC[C@H]2OCC1CO1 (stereo partly specified) | > 100 µM | > 100 µM | > 100 | – | > 100 | > 100 | > 100 | > 100 | > 100 µM | > 100 | – | – | – | – | – | – | – | – | –
NC(=O)C(c1ccccc1)N1CCOCC1 (stereo unspecified) | > 100 µM | > 100 µM | > 100 | – | > 100 | > 100 | > 100 | > 100 | > 100 µM | > 100 | – | – | – | – | – | – | – | – | –
O=C1CN(C(=O)c2ccccc2)Cc2[nH]c3ccccc3c21 | > 100 µM | – | > 100 | – | > 100 | > 100 | > 100 | > 100 | > 100 µM | > 100 | – | – | – | – | – | – | – | – | –
CCSC1=C(C)N(C=NC(C)(C)C)CC1 | > 100 µM | > 100 µM | > 100 | – | > 100 | > 100 | > 100 | > 100 | > 100 µM | > 100 | – | – | – | – | – | – | – | – | –
O=C1C(=O)N(c2ccc(Cl)cc2Cl)C(=O)C(=O)C1c1nc2ccccc2o1 | > 100 µM | > 100 µM | > 100 | – | > 100 | > 100 | > 100 | > 100 | > 100 µM | > 100 | – | – | – | – | – | – | – | – | –
COc1cc2c[n+](C)c3c4ccccc4ccc3c2cc1OC (tested in a mixture with another compound) | 5.02 µM and 14 µM | 2.86 µM and 10.4 µM | > 100 | – | 31.7 | 15.4 | 21.8 | > 100 | 3.25 µM and 14 µM | – | 1.46 | 0.818 | 19.8 | 3.57 | 4.25 | 1.28 | – | – | –
O=C1c2c(n(Cc3ccccc3)c(=O)n2Cc2ccccc2)C(=O)N1Cc1ccccc1 | > 100 µM | > 100 µM | > 100 | – | > 100 | > 100 | > 100 | > 100 | > 100 µM | – | – | – | – | – | – | – | – | – | –
CN1CC(C(=O)C2C(=O)c3ccccc3C2=O)C(=O)C(=O)C(C(=O)C2C(=O)c3ccccc3C2=O)C1 (stereo unspecified) | > 100 µM | > 100 µM | > 100 | – | > 100 | – | > 100 | > 100 | > 100 µM | > 100 | – | – | – | – | – | – | – | – | –
CC#CC1/C(=C\C(=O)OC)CCCC1O (stereo unspecified) | – | > 100 µM | > 100 | – | > 100 | > 100 | > 100 | > 100 | > 100 µM | > 100 | – | – | – | – | – | – | – | – | –
CCN(CCCl)CCCNc1c2ccccc2nc2ccc(OC)cc12 | 1.12 µM | – | – | – | 1.63 | – | – | 1.86 | – | 1.04 | – | – | – | – | 587 | 754 | 254 | 174 | 323
O=C(CC(=O)N1N=C(N2c3ccccc3Sc3ccccc32)CC1c1ccccc1)Nc1ccc(Cl)cc1 (stereo unspecified) | > 100 µM | > 100 µM | > 100 | – | > 100 | > 100 | – | > 100 | > 100 µM | – | – | – | – | – | – | – | – | – | –
CCOC(=O)C1SC(=Nc2ccc(Cl)c(Cl)c2)N=C1C (stereo unspecified) | 76.3 µM | > 100 µM | > 100 | – | > 100 | > 100 | > 100 | > 100 | > 100 µM | – | – | – | – | – | – | – | – | – | –
CC1=CCC23C(C1)OC(Br)(C=CC2(C)O)C3(C)C (stereo unspecified) | > 100 µM | > 100 µM | > 100 | – | > 100 | > 100 | > 100 | – | > 100 µM | – | – | – | – | – | – | – | – | – | –
